Results from ChEMBL document CHEMBL3774308, “KATching-Up on Small Molecule Modulators of Lysine Acetyltransferases” (J Med Chem, 2016).

Columns and labels:
[1] = molecular target: Histone acetyltransferase p300 (Homo sapiens, UniProt Q09472); test: Inhibition of human p300 expressed in competent escherichia coli BL21(DE3)-R3-pRARE2 cells by isothermal titration calorimetry
CREB-binding protein = CREB-binding protein (Homo sapiens, UniProt Q92793); test: Inhibition of human CREBBP expressed in competent escherichia coli BL21(DE3)-R3-pRARE2 cells by isothermal titration calorimetry
Sequence of CREB-binding protein (Q92793 whole entry): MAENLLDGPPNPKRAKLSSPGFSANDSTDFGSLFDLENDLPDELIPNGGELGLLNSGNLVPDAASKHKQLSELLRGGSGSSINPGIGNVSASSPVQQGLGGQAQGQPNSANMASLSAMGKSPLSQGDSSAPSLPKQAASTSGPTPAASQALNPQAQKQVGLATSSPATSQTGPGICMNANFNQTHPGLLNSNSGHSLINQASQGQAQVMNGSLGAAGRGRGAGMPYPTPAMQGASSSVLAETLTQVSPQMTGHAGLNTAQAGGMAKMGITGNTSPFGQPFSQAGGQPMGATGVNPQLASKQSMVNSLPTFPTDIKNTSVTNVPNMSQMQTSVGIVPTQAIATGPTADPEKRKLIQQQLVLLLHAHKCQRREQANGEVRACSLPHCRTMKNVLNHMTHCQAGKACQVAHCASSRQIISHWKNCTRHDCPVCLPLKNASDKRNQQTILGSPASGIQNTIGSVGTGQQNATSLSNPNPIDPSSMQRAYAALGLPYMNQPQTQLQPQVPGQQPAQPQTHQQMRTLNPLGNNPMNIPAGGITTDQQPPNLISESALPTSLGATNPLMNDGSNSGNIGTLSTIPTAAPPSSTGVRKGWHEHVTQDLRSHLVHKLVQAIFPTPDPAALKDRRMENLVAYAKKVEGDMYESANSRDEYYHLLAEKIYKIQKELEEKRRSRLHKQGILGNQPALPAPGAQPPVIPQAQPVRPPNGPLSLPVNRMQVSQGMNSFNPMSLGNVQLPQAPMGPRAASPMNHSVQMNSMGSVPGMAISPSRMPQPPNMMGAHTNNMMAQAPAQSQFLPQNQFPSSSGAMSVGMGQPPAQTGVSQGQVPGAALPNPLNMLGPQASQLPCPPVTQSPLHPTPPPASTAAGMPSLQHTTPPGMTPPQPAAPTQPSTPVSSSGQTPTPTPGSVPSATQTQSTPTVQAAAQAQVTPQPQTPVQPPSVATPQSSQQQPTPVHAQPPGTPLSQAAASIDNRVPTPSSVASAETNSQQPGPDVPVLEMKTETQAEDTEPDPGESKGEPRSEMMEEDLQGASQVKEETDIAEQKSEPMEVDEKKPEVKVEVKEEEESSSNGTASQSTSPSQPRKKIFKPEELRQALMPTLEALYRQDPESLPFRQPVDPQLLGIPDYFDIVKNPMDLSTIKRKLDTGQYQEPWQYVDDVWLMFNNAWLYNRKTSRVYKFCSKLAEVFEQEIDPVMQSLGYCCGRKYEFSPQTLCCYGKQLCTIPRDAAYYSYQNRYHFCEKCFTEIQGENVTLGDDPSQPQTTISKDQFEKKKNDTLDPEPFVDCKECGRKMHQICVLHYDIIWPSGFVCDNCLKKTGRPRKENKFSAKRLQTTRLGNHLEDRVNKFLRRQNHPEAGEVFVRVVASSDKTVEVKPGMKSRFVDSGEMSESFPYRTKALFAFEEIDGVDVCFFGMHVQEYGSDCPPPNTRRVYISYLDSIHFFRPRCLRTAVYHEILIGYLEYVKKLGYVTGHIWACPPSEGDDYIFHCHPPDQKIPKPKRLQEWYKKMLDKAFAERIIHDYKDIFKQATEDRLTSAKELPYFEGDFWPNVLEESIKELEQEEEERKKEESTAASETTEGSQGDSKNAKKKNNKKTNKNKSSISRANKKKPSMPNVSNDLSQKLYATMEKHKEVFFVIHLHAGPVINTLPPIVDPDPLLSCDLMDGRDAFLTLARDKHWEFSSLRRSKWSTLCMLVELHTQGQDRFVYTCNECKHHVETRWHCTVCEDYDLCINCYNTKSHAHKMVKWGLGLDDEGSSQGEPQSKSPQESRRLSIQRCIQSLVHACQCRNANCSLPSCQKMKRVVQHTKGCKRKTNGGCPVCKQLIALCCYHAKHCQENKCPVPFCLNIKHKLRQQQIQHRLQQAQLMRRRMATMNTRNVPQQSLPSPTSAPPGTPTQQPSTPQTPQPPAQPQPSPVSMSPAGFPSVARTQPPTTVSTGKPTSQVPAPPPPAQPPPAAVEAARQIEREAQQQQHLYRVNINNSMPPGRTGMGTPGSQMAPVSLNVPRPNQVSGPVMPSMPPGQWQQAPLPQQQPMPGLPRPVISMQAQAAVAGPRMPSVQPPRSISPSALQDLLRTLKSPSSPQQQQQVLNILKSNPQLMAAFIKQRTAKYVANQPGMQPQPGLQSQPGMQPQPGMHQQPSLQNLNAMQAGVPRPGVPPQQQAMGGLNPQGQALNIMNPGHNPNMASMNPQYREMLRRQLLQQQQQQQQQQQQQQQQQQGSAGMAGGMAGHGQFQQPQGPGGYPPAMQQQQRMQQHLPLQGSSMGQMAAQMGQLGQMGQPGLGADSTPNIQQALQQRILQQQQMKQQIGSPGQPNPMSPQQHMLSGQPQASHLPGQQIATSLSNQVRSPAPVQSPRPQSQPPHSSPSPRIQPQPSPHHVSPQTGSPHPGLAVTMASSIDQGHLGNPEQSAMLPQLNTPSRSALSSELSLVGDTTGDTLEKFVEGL

Sequence of Histone acetyltransferase p300 (Q09472 whole entry): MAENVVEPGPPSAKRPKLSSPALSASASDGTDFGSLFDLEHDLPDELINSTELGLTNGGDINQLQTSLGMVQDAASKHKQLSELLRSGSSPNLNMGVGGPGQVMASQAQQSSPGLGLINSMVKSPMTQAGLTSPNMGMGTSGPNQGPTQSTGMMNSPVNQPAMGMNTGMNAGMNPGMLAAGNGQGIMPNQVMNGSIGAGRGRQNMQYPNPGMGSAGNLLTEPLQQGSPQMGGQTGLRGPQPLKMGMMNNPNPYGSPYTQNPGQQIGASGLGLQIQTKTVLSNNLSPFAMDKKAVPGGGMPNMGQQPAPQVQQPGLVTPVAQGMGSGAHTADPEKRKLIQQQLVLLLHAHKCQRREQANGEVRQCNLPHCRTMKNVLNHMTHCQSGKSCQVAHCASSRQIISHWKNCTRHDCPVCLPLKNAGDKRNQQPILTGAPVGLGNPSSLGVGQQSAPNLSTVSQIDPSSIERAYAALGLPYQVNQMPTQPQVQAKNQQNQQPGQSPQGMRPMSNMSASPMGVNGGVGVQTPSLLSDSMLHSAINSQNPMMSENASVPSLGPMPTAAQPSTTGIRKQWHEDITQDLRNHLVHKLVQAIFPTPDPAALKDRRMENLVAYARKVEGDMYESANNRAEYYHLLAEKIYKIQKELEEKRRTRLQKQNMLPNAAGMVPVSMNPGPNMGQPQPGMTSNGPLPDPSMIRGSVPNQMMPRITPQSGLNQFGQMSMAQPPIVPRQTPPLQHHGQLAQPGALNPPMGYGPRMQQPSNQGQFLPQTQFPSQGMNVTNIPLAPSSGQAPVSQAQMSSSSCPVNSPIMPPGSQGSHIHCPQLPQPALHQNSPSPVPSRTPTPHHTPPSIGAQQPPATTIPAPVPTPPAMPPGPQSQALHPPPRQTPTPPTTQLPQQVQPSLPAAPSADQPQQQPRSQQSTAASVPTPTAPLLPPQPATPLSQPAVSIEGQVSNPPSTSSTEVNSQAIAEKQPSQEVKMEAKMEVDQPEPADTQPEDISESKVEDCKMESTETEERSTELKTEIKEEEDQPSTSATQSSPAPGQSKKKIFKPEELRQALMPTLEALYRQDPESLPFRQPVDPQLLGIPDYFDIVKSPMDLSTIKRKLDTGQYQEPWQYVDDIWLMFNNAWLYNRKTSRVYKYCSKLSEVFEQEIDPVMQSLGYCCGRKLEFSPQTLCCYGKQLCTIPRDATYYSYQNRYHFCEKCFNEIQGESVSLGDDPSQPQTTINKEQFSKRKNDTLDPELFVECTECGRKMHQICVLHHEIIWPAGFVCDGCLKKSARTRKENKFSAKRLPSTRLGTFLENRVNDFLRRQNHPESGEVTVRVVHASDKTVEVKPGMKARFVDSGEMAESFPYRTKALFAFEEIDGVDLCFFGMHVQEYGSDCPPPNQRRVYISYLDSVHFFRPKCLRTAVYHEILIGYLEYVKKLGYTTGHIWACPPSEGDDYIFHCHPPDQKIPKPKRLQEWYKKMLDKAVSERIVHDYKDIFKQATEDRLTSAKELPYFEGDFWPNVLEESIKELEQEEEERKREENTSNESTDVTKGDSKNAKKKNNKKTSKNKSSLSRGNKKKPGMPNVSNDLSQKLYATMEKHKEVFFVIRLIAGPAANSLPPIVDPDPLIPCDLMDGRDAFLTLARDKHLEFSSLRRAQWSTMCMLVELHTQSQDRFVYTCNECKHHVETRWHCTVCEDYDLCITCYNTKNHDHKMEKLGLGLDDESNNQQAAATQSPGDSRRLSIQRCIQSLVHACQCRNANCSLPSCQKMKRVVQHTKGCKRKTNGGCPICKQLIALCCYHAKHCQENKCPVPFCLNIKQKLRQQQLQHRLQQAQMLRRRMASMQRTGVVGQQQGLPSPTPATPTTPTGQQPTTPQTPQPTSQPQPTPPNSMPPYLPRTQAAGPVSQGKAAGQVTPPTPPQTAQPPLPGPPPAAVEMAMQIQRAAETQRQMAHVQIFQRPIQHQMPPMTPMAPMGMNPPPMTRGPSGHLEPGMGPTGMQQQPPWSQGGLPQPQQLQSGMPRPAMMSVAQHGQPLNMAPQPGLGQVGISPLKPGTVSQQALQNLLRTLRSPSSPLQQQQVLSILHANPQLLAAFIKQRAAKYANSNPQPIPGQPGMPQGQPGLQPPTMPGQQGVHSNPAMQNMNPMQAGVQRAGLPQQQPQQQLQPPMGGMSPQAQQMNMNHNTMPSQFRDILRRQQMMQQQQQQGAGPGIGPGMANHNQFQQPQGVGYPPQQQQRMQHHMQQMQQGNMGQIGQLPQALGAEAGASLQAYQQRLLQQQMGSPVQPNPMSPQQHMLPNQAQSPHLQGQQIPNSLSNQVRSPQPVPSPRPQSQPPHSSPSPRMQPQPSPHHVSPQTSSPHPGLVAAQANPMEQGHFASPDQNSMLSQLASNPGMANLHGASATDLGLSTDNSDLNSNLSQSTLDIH

**Q.** Which results are given for `CCC(=O)N1CCOc2c(cc(-c3ccc(OC)c(OC)c3)cc2OC[C@H]2CCCN(C)C2)C1`?
**A.** Kd [1]: 0.167 µM; Kd (CREB-binding protein): 0.151 µM
